{
  "source": "patent US8604023B2",
  "about": "“1,4-benzodiazepinone compounds and their use in treating cancer” (The Regents of the University of Michigan, priority 2009, dated 2013)",
  "key": {"HOP-62": {"tested_on": "HOP-62", "assay": "cancer cell growth inhibition (SRB)", "format": "cell-based, human", "settings": "Non-Small Cell Lung Cancer"}, "NCI-H23": {"tested_on": "NCI-H23", "assay": "cancer cell growth inhibition (SRB)", "format": "cell-based, human", "settings": "Non-Small Cell Lung Cancer"}, "NCI-H460": {"tested_on": "NCI-H460", "assay": "cancer cell growth inhibition (SRB)", "format": "cell-based, human", "settings": "Non-Small Cell Lung Cancer"}, "NCI/ADR-RES": {"tested_on": "NCI/ADR-RES", "assay": "cancer cell growth inhibition (SRB)", "format": "cell-based, human", "settings": "Breast Cancer"}, "KM12": {"tested_on": "KM12", "assay": "cancer cell growth inhibition (SRB)", "format": "cell-based, human", "settings": "Colon Cancer"}, "MALME-3M": {"tested_on": "MALME-3M", "assay": "cancer cell growth inhibition (SRB)", "format": "cell-based, human", "settings": "Melanoma"}, "Ramos cells": {"tested_on": "Ramos cells", "assay": "cytotoxicity in Ramos cells", "format": "cell-based", "settings": "Homo sapiens", "experimental": "The compounds listed in Table 5 were tested for cytotoxicity in Ramos cells. The assay was conducted as described in K. M. Johnson et al. Chemistry & Biology 2005, 12, 485-496."}, "OVCAR-3": {"tested_on": "OVCAR-3", "assay": "cancer cell growth inhibition (SRB)", "format": "cell-based, human", "settings": "Ovarian Cancer"}, "CAKI-1": {"tested_on": "CAKI-1", "assay": "cancer cell growth inhibition (SRB)", "format": "cell-based, human", "settings": "Renal Cancer"}, "SR": {"tested_on": "SR", "assay": "cancer cell growth inhibition (SRB)", "format": "cell-based, human", "settings": "Leukemia"}, "OVCAR-4": {"tested_on": "OVCAR-4", "assay": "cancer cell growth inhibition (SRB)", "format": "cell-based, human", "settings": "Ovarian Cancer"}, "RXF 393": {"tested_on": "RXF 393", "assay": "cancer cell growth inhibition (SRB)", "format": "cell-based, human", "settings": "Renal Cancer"}, "SF-295": {"tested_on": "SF-295", "assay": "cancer cell growth inhibition (SRB)", "format": "cell-based, human", "settings": "CNS Cancer"}, "SK-OV-3": {"tested_on": "SK-OV-3", "assay": "cancer cell growth inhibition (SRB)", "format": "cell-based, human", "settings": "Ovarian Cancer"}, "HL-60(TB)": {"tested_on": "HL-60(TB)", "assay": "cancer cell growth inhibition (SRB)", "format": "cell-based, human", "settings": "Leukemia"}, "BT-549": {"tested_on": "BT-549", "assay": "cancer cell growth inhibition (SRB)", "format": "cell-based, human", "settings": "Breast Cancer"}, "U251": {"tested_on": "U251", "assay": "cancer cell growth inhibition (SRB)", "format": "cell-based, human", "settings": "CNS Cancer"}, "MOLT-4": {"tested_on": "MOLT-4", "assay": "cancer cell growth inhibition (SRB)", "format": "cell-based, human", "settings": "Leukemia"}, "HS 578T": {"tested_on": "HS 578T", "assay": "cancer cell growth inhibition (SRB)", "format": "cell-based, human", "settings": "Breast Cancer"}, "MDA-MB-231/ATCC": {"tested_on": "MDA-MB-231/ATCC", "assay": "cancer cell growth inhibition (SRB)", "format": "cell-based, human", "settings": "Breast Cancer"}, "LOXIMVI": {"tested_on": "LOXIMVI", "assay": "cancer cell growth inhibition (SRB)", "format": "cell-based, human", "settings": "Melanoma"}, "A498": {"tested_on": "A498", "assay": "cancer cell growth inhibition (SRB)", "format": "cell-based, human", "settings": "Renal Cancer"}, "SK-MEL-2": {"tested_on": "SK-MEL-2", "assay": "cancer cell growth inhibition (SRB)", "format": "cell-based, human", "settings": "Melanoma"}, "UACC-62": {"tested_on": "UACC-62", "assay": "cancer cell growth inhibition (SRB)", "format": "cell-based, human", "settings": "Melanoma"}, "MCF7": {"tested_on": "MCF7", "assay": "cancer cell growth inhibition (SRB)", "format": "cell-based, human", "settings": "Breast Cancer"}, "786-0": {"tested_on": "786-0", "assay": "cancer cell growth inhibition (SRB)", "format": "cell-based, human", "settings": "Renal Cancer"}, "HOP-92": {"tested_on": "HOP-92", "assay": "cancer cell growth inhibition (SRB)", "format": "cell-based, human", "settings": "Non-Small Cell Lung Cancer"}, "SK-MEL-5": {"tested_on": "SK-MEL-5", "assay": "cancer cell growth inhibition (SRB)", "format": "cell-based, human", "settings": "Melanoma"}, "SF-268": {"tested_on": "SF-268", "assay": "cancer cell growth inhibition (SRB)", "format": "cell-based, human", "settings": "CNS Cancer"}, "SNB-75": {"tested_on": "SNB-75", "assay": "cancer cell growth inhibition (SRB)", "format": "cell-based, human", "settings": "CNS Cancer"}, "DU-145": {"tested_on": "DU-145", "assay": "cancer cell growth inhibition (SRB)", "format": "cell-based, human", "settings": "Prostate Cancer"}, "K-562": {"tested_on": "K-562", "assay": "cancer cell growth inhibition (SRB)", "format": "cell-based, human", "settings": "Leukemia"}, "CCRF-CEM": {"tested_on": "CCRF-CEM", "assay": "cancer cell growth inhibition (SRB)", "format": "cell-based, human", "settings": "Leukemia"}, "SN12C": {"tested_on": "SN12C", "assay": "cancer cell growth inhibition (SRB)", "format": "cell-based, human", "settings": "Renal Cancer"}, "UACC-257": {"tested_on": "UACC-257", "assay": "cancer cell growth inhibition (SRB)", "format": "cell-based, human", "settings": "Melanoma"}},
  "data": [
    {"smiles": "CN1C(=O)C(Cc2ccc3ccccc3c2)N=C(c2cn[nH]c2)c2cc(Cl)ccc21", "note": "(centres unmarked) [Compound V-38]", "values": [
      {"measurement": "growth inhibition of the cancer cells", "setting": "HOP-62", "value": "+++ (at least 75% growth inhibition of the cancer cells)"},
      {"measurement": "growth inhibition of the cancer cells", "setting": "NCI-H23", "value": "+++ (at least 75% growth inhibition of the cancer cells)"},
      {"measurement": "growth inhibition of the cancer cells", "setting": "NCI-H460", "value": "++ (40%-75% growth inhibition of the cancer cells)"},
      {"measurement": "growth inhibition of the cancer cells", "setting": "NCI/ADR-RES", "value": "+ (less than 40% growth inhibition of the cancer cells)"},
      {"measurement": "growth inhibition of the cancer cells", "setting": "KM12", "value": "+++ (at least 75% growth inhibition of the cancer cells)"},
      {"measurement": "growth inhibition of the cancer cells", "setting": "MALME-3M", "value": "+++ (at least 75% growth inhibition of the cancer cells)"},
      {"measurement": "EC50", "setting": "Ramos cells", "value": "≤ 5", "unit": "µM"},
      {"measurement": "growth inhibition of the cancer cells", "setting": "OVCAR-3", "value": "+++ (at least 75% growth inhibition of the cancer cells)"},
      {"measurement": "growth inhibition of the cancer cells", "setting": "CAKI-1", "value": "+ (less than 40% growth inhibition of the cancer cells)"},
      {"measurement": "growth inhibition of the cancer cells", "setting": "SR", "value": "− (an apparent increase in cancer cell growth upon administration of the test compound)"},
      {"measurement": "growth inhibition of the cancer cells", "setting": "OVCAR-4", "value": "++ (40%-75% growth inhibition of the cancer cells)"},
      {"measurement": "growth inhibition of the cancer cells", "setting": "RXF 393", "value": "+++ (at least 75% growth inhibition of the cancer cells)"},
      {"measurement": "growth inhibition of the cancer cells", "setting": "SF-295", "value": "+ (less than 40% growth inhibition of the cancer cells)"},
      {"measurement": "growth inhibition of the cancer cells", "setting": "SK-OV-3", "value": "+ (less than 40% growth inhibition of the cancer cells)"},
      {"measurement": "growth inhibition of the cancer cells", "setting": "HL-60(TB)", "value": "+ (less than 40% growth inhibition of the cancer cells)"},
      {"measurement": "growth inhibition of the cancer cells", "setting": "BT-549", "value": "+++ (at least 75% growth inhibition of the cancer cells)"},
      {"measurement": "growth inhibition of the cancer cells", "setting": "U251", "value": "+++ (at least 75% growth inhibition of the cancer cells)"},
      {"measurement": "growth inhibition of the cancer cells", "setting": "MOLT-4", "value": "+ (less than 40% growth inhibition of the cancer cells)"},
      {"measurement": "growth inhibition of the cancer cells", "setting": "HS 578T", "value": "+ (less than 40% growth inhibition of the cancer cells)"},
      {"measurement": "growth inhibition of the cancer cells", "setting": "MDA-MB-231/ATCC", "value": "+ (less than 40% growth inhibition of the cancer cells)"},
      {"measurement": "growth inhibition of the cancer cells", "setting": "LOXIMVI", "value": "+++ (at least 75% growth inhibition of the cancer cells)"},
      {"measurement": "growth inhibition of the cancer cells", "setting": "A498", "value": "+++ (at least 75% growth inhibition of the cancer cells)"},
      {"measurement": "growth inhibition of the cancer cells", "setting": "SK-MEL-2", "value": "++ (40%-75% growth inhibition of the cancer cells)"},
      {"measurement": "growth inhibition of the cancer cells", "setting": "UACC-62", "value": "+++ (at least 75% growth inhibition of the cancer cells)"},
      {"measurement": "growth inhibition of the cancer cells", "setting": "MCF7", "value": "++ (40%-75% growth inhibition of the cancer cells)"},
      {"measurement": "growth inhibition of the cancer cells", "setting": "786-0", "value": "+++ (at least 75% growth inhibition of the cancer cells)"},
      {"measurement": "growth inhibition of the cancer cells", "setting": "HOP-92", "value": "++ (40%-75% growth inhibition of the cancer cells)"},
      {"measurement": "growth inhibition of the cancer cells", "setting": "SK-MEL-5", "value": "+++ (at least 75% growth inhibition of the cancer cells)"},
      {"measurement": "growth inhibition of the cancer cells", "setting": "SF-268", "value": "+++ (at least 75% growth inhibition of the cancer cells)"},
      {"measurement": "growth inhibition of the cancer cells", "setting": "SNB-75", "value": "+++ (at least 75% growth inhibition of the cancer cells)"},
      {"measurement": "growth inhibition of the cancer cells", "setting": "DU-145", "value": "+++ (at least 75% growth inhibition of the cancer cells)"},
      {"measurement": "growth inhibition of the cancer cells", "setting": "K-562", "value": "+ (less than 40% growth inhibition of the cancer cells)"},
      {"measurement": "growth inhibition of the cancer cells", "setting": "CCRF-CEM", "value": "+ (less than 40% growth inhibition of the cancer cells)"},
      {"measurement": "growth inhibition of the cancer cells", "setting": "SN12C", "value": "++ (40%-75% growth inhibition of the cancer cells)"},
      {"measurement": "growth inhibition of the cancer cells", "setting": "UACC-257", "value": "+++ (at least 75% growth inhibition of the cancer cells)"}
    ]}
  ]
}
